Earlier results on one compound are cited in patent publication US10029020B2, “Fullerene compositions” (UNIVERSITEIT GENT, priority 2015, dated 2018).

The subject of data set [1] is rats. The note with it: regular administration; Moussa et al., Biomaterials 2012.

The structures appear in SMILES notation.

`c12c3c4c5c1c1c6c7c2c2c8c3c3c9c4c4c%10c5c5c1c1c6c6c%11c7c2c2c7c8c3c3c8c9c4c4c9c%10c5c5c1c1c6c6c%11c2c2c7c3c3c8c4c4c9c5c1c1c6c2c3c41` [Polymer C60, buckminsterfullerene (C60)]: the water solubility is 10^−8 ng/L. Further, the lifespan of rats entry in data set [1] was “doubled”.
